# Assay results taken from ChEMBL document CHEMBL1201862, “PubChem BioAssay data set” (2004).
#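 Where inhibition never reached the appropriate level, the endpoint shown equals the highest concentration tested. Otherwise, values were interpolated linearly from a five-concentration, 48-hour dose response in 96-well plates. At the GI50, growth is halved.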 Activity calls are given as the source filed them. No stated cut-off is given here; in the data, active = GI50 up to about 1.1 µM and inactive = higher.
# Key:
# Assay in all cases: NCI tumour cell line growth inhibition, 48 h
# SNB-19 = test system: SNB-19
# A498 = test system: A498
# IGROV-1 = test system: IGROV-1
# NCI/ADR-RES = test system: NCI/ADR-RES
# CAKI-1 = test system: CAKI-1
# A549 = test system: A549
# SNB-78 = test system: SNB-78
# SF-539 = test system: SF-539
# SK-MEL-5 = test system: SK-MEL-5
# HCT-15 = test system: HCT-15
# HOP-18 = test system: HOP-18
# U-251 = test system: U-251
# MCF7 = test system: MCF7
# XF498 = test system: XF498
# LXFL 529 = test system: LXFL 529
# TK-10 = test system: TK-10
# ACHN = test system: ACHN
# M14 = test system: M14
SMILES,GI50 (SNB-19),GI50 (A498),GI50 (IGROV-1),GI50 (NCI/ADR-RES),GI50 (CAKI-1),GI50 (A549),GI50 (SNB-78),GI50 (SF-539),GI50 (SK-MEL-5),GI50 (HCT-15),GI50 (HOP-18),GI50 (U-251),GI50 (MCF7),GI50 (XF498),GI50 (LXFL 529),GI50 (TK-10),GI50 (ACHN),GI50 (M14)
CN(C)CCNC(=O)c1cccc2[nH]c(-c3ccccn3)nc12,42.2 µM (inactive),36.6 µM (inactive),35.1 µM (inactive),26.1 µM (inactive),21.5 µM (inactive),36.2 µM (inactive),34.9 µM (inactive),43.5 µM (inactive),21.7 µM (inactive),37.2 µM,29 µM (inactive),38.8 µM (inactive),31.5 µM (inactive),36.6 µM (inactive),–,–,–,–
CCOC(=O)C(C#N)(Cc1c[nH]c2ccccc12)NC(C)=O (stereo unspecified),–,–,> 100 µM (inactive),–,> 100 µM (inactive),–,–,–,> 100 µM (inactive),> 100 µM,–,> 100 µM (inactive),–,–,> 100 µM (inactive),> 100 µM (inactive),> 100 µM (inactive),> 100 µM (inactive)
CCC(C)C1NC(=O)CNC(=O)C2Cc3c([nH]c4cc(O)ccc34)[S+]([O-])CC(NC(=O)CNC1=O)C(=O)NC(CC(=O)O)C(=O)N1CC(O)CC1C(=O)NC(C(C)C(O)CO)C(=O)N2 (stereo unspecified),1.3 µM (inactive),2.83 µM (inactive),4.39 µM (inactive),3.97 µM (inactive),–,4.58 µM (inactive),0.664 µM (active),0.45 µM (active),2.43 µM (inactive),10.4 µM,25.8 µM (inactive),3.83 µM (inactive),5.12 µM (inactive),1.16 µM (inactive),–,–,–,–
